Target: T1, purified rat kidney enkephalinase (Rattus norvegicus, UniProt P07861)
T1 construct: Rat kidney enkephalinase was purified to apparent homogeneity; from tissue; host or cells: rat kidney (male rats, membrane fraction, Triton X-100 solubilised)
T1 sequence (P07861 1-750): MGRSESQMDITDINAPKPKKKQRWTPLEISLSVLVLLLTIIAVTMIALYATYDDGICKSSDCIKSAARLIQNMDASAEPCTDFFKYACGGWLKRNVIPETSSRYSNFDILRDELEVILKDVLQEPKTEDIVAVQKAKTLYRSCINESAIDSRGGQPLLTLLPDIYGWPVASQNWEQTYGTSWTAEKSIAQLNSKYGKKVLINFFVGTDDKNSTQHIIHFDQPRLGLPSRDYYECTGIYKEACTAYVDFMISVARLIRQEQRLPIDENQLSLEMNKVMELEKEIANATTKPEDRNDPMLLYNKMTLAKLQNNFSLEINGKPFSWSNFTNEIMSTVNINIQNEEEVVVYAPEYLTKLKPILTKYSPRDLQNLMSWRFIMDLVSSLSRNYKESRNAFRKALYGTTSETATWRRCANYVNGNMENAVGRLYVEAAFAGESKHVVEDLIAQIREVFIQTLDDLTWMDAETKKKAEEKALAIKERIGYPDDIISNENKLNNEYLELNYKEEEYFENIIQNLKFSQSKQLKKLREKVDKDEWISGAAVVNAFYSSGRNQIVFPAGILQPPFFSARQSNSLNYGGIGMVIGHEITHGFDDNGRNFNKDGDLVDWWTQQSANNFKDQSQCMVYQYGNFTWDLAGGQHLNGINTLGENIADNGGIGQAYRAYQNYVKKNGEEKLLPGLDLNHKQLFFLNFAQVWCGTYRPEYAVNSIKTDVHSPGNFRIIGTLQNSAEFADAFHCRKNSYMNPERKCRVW
Assay: HPLC analysis of the hydrolysis of peptides by enkephalinase, without and with thiorphan
Type: biochemical
Details: 100 nM thiorphan; peptides 1 mM, 1 hr at 37° C., 5 ng enzyme

How did the “inhibition of the hydrolysis of all substrates” value turn out when O=C(O)CNC(=O)C(CS)Cc1ccccc1 (stereo not shown) [Thiorphan] was run?
The value was “completely inhibited”.

From patent publication US5780025A, “Compositions and methods for the synthesis and assay of enkephalinase” (Genentech, Inc., priority 1993, dated 1998)
